The IC50 is the concentration that inhibits the measured activity by half.

Consider 16 compounds from patent US12668600B2 (Kumquat Biosciences Inc., priority 2023, dated 2026).

Common to all, as to type: biochemical
The target of one experiment is T1, KRAS G12D (Homo sapiens, UniProt P01116, G12D).
T1 construct: made in house; host or cells: E. coli, e.g. BL21 (DE3)
As to the kind of experiment: HTRF KRAS-SOS1 interaction assay, KRAS G12D. The following applies: binned ≤2 μM / >2 μM, read-out: Inhibition of KRAS G12D (IC50). The procedure, abridged:
(§1)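 GST-tagged KRAS (WT or mutant) with anti-GST-Eu donor, mixed with His-hSOS1 and anti-6His-XL665 acceptor. Buffer ~5 mM HEPES pH 7.4, ~150 mM NaCl, ~1 mM DTT, 0.05% BSA, 0.0025% Igepal; incubated about 10 min or longer. HTRF 665/620 ratio, compounds in duplicate up to 10 μM, IC50 derived.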
In general terms: Time-resolved FRET reads energy transfer from a long-lived donor to a nearby acceptor.

The target of another experiment is T2, KRAS WT (Homo sapiens, UniProt P01116).
T2 construct: made in house; host or cells: E. coli, e.g. BL21 (DE3)
T2 sequence (P01116 1-188 isoform P01116-2): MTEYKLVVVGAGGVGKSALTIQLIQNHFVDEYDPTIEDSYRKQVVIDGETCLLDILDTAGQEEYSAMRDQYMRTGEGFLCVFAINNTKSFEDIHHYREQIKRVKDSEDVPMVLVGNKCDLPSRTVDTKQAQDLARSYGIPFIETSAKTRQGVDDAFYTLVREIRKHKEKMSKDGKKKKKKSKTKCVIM
As to the kind of experiment: HTRF KRAS-SOS1 interaction assay, wildtype KRAS. The settings on record: binned ≤2 μM / >2 μM, read-out: Inhibition of KRAS WT (IC50). The procedure, abridged: as §1

In the next experiment the target is T3, KRAS G12V (Homo sapiens, UniProt P01116, G12V).
T3 construct: made in house; host or cells: E. coli, e.g. BL21 (DE3)
T3 sequence (P01116 1-188 isoform P01116-2 G12V): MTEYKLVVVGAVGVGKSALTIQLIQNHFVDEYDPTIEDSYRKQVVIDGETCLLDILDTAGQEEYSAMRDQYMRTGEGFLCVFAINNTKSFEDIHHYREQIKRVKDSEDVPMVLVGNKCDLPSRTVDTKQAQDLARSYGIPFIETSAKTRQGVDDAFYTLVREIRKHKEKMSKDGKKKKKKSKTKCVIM
As to the kind of experiment: HTRF KRAS-SOS1 interaction assay, KRAS G12V. The following applies: binned ≤2 μM / >2 μM, read-out: Inhibition of KRAS G12V (IC50). In outline: as §1

The target in another experiment is T4, KRAS G12S (Homo sapiens, UniProt P01116, G12S).
T4 construct: made in house; host or cells: E. coli, e.g. BL21 (DE3)
T4 sequence (P01116 1-188 isoform P01116-2 G12S): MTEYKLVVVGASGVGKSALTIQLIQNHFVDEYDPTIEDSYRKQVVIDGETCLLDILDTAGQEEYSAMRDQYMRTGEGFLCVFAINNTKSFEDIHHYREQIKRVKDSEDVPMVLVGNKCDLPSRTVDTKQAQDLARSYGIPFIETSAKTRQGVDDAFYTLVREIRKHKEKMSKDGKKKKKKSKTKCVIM
As to the kind of experiment: HTRF KRAS-SOS1 interaction assay, KRAS G12S. The following applies: binned ≤2 μM / >2 μM, read-out: Inhibition of KRAS G12S (IC50). The procedure, abridged: as §1

T1 sequence (P01116 1-188 isoform P01116-2 G12D): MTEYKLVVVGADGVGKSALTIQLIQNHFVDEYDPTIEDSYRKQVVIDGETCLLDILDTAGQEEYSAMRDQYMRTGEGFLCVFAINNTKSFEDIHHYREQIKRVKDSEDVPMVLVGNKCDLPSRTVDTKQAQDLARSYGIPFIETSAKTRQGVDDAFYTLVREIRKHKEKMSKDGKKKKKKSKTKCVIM

On to `C[C@H](c1cccnc1N)N1CCOc2c(Cl)c(-c3ccc(F)c4sc(N)c(C#N)c34)c(F)c3nc(OC[C@]45CCCN4[C@H](CN)CC5)nc1c23` [Compound 915, 2-amino-4-(2-(((3S,7aR)-3-(aminomethyl)tetrahydro-1H-pyrrolizin-7a(5H)-yl)methoxy)-4-((R)-1-(2-aminopyridin-3-yl)ethyl)-8-chloro-10-fluoro-5,6-dihydro-4H-[1,4]oxazepino[5,6,7-de]quinazolin-9-yl)-7-fluorobenzo[b]thiophene-3-carbonitrile], for which the IC50 on KRAS G12D, at KRAS WT, on KRAS G12V and at KRAS G12S was not above 2 µM throughout.

Take `C#CCC(c1cccnc1N)N1CCOc2c(Cl)c(-c3ccc(F)c4sc(N)c(C#N)c34)c(F)c3nc(OC[C@@]45CCCN4C[C@H](F)C5)nc1c23` (single isomer, unassigned) [Compound 764]: the IC50 on KRAS G12D, on KRAS WT, at KRAS G12V and at KRAS G12S was not above 2 µM in each case.

As to `C[S+]([O-])CCC[C@H](c1cccnc1N)N1CCOc2c(C(F)(F)F)c(-c3ccc(F)c4sc(N)c(C#N)c34)c(F)c3nc(OC[C@@]45CCCN4C[C@H](F)C5)nc1c23` (mixture of isomers) [Compound 691, 2-amino-4-(4-((1R)-1-(2-aminopyridin-3-yl)-4-(methylsulfinyl)butyl)-10-fluoro-2-(((2R,7aS)-2-fluorotetrahydro-1H-pyrrolizin-7a(5H)-yl)methoxy)-8-(trifluoromethyl)-5,6-dihydro-4H-[1,4]oxazepino[5,6,7-de]quinazolin-9-yl)-7-fluorobenzo[b]thiophene-3-carbonitrile], the IC50 on KRAS G12D, on KRAS WT, at KRAS G12V and on KRAS G12S was not above 2 µM throughout.

On to `C[C@H](c1cncnc1N)N1CCOc2c(C(F)(F)F)c(-c3ccc(F)c4sc(N)c(C#N)c34)c(F)c3nc(OCC4(CN5CCC(=CF)CC5)CC4)nc1c23` [Compound 916, 2-amino-4-(4-((R)-1-(4-aminopyrimidin-5-yl)ethyl)-10-fluoro-2-((1-((4-(fluoromethylene)piperidin-1-yl)methyl)cyclopropyl)methoxy)-8-(trifluoromethyl)-5,6-dihydro-4H-[1,4]oxazepino[5,6,7-de]quinazolin-9-yl)-7-fluorobenzo[b]thiophene-3-carbonitrile], for which the IC50 on KRAS G12D, on KRAS WT, at KRAS G12V and at KRAS G12S was not above 2 µM in each case.

Consider `N#Cc1c(N)sc2c(F)ccc(-c3c(C(F)(F)F)c4c5c(nc(OC[C@@]67CCCN6C[C@@]6(CC6(F)F)C7)nc5c3F)N([C@@H](c3cccnc3N)C(F)F)CCO4)c12` (single isomer, unassigned) [Compound 897], for which the IC50 at KRAS G12D, at KRAS WT, on KRAS G12V and at KRAS G12S was more than 2 µM throughout.

Turning to `CCN(CC)CCC[C@H](c1cccnc1N)N1CCOc2c(C(F)(F)F)c(-c3ccc(F)c4sc(NC)c(C#N)c34)c(F)c3nc(OC[C@@]45CCCN4C[C@H](F)C5)nc1c23` (single isomer, unassigned) [Compound 832], the IC50 at KRAS G12D, at KRAS WT, on KRAS G12V and on KRAS G12S was not above 2 µM each time.

Turning to `N#Cc1c(N)sc2c(F)ccc(-c3c(C(F)(F)F)c4c5c(nc(OC[C@@]67CCCN6C[C@H](F)C7)nc5c3F)N([C@H](CCC3CC3)c3cccnc3N)CCO4)c12` (single isomer, unassigned) [Compound 606], the IC50 on KRAS G12D, at KRAS WT, on KRAS G12V and at KRAS G12S was more than 2 µM throughout.

As for `N#Cc1c(N)sc2c(F)ccc(-c3c(Cl)c4c5c(nc(OC[C@@]67CCCN6C[C@H](F)C7)nc5c3F)N([C@H](/C=C/C(F)F)c3cccnc3N)CCO4)c12` [Compound 731, 2-amino-4-(4-((R,E)-1-(2-aminopyridin-3-yl)-4,4-difluorobut-2-en-1-yl)-8-chloro-10-fluoro-2-(((2R,7aS)-2-fluorotetrahydro-1H-pyrrolizin-7a(5H)-yl)methoxy)-5,6-dihydro-4H-[1,4]oxazepino[5,6,7-de]quinazolin-9-yl)-7-fluorobenzo[b]thiophene-3-carbonitrile], the IC50 at KRAS G12D, at KRAS WT, on KRAS G12V and at KRAS G12S was not above 2 µM in each case.

With `CCO/N=C(\C)CCC[C@H](c1cccnc1N)N1CCOc2c(C(F)(F)F)c(-c3ccc(F)c4sc(N)c(C#N)c34)c(F)c3nc(OC[C@@]45CCCN4C[C@H](F)C5)nc1c23` (single isomer, unassigned) [Compound 715], the IC50 on KRAS G12D, on KRAS WT, at KRAS G12V and at KRAS G12S was not above 2 µM throughout.

As to `C[C@H](c1cccnc1N)N1CCOc2c(C(F)(F)F)c(-c3ccc(F)c4sc(N)c(C#N)c34)c(F)c3nc(OC[C@@]45CCCN4C[C@@]4(CC4(F)F)C5)nc1c23` (single isomer, unassigned) [Compound 725], the IC50 at KRAS G12D, at KRAS WT, at KRAS G12V and on KRAS G12S was not above 2 µM each time.

Take `C=C1CN2CCC[C@@]2(COc2nc3c4c(c(C(F)(F)F)c(-c5ccc(F)c6sc(N)c(C#N)c56)c(F)c4n2)OCCN3[C@H](C)c2cc(F)cnc2N)C1` [Compound 620, 2-amino-4-(4-((R)-1-(2-amino-5-fluoropyridin-3-yl)ethyl)-10-fluoro-2-(((S)-2-methylenetetrahydro-1H-pyrrolizin-7a(5H)-yl)methoxy)-8-(trifluoromethyl)-5,6-dihydro-4H-[1,4]oxazepino[5,6,7-de]quinazolin-9-yl)-7-fluorobenzo[b]thiophene-3-carbonitrile]: the IC50 on KRAS G12D, at KRAS WT, on KRAS G12V and at KRAS G12S was not above 2 µM throughout.

With `CC[C@H](c1cc(F)cnc1N)N1CCOc2c(C(F)(F)F)c(-c3ccc(F)c4sc(N)c(C#N)c34)c(F)c3nc(OC[C@@]45CCCN4C[C@H](F)C5)nc1c23` [Compound 870, 2-amino-4-(4-((R)-1-(2-amino-5-fluoropyridin-3-yl)propyl)-10-fluoro-2-(((2R,7aS)-2-fluorotetrahydro-1H-pyrrolizin-7a(5H)-yl)methoxy)-8-(trifluoromethyl)-5,6-dihydro-4H-[1,4]oxazepino[5,6,7-de]quinazolin-9-yl)-7-fluorobenzo[b]thiophene-3-carbonitrile], the IC50 on KRAS G12D, on KRAS WT, at KRAS G12V and on KRAS G12S was not above 2 µM throughout.

As to `N#Cc1c(N)sc2c(F)ccc(-c3c(Cl)c4c5c(nc(OC[C@@]67CCCN6C[C@@]6(CC6(F)F)C7)nc5c3F)N([C@@H](c3cccnc3N)C(F)F)CCO4)c12` [Compound 831, 2-amino-4-(4-((S)-1-(2-aminopyridin-3-yl)-2,2-difluoroethyl)-8-chloro-2-(((1S,7a′S)-2,2-difluorodihydro-1′H,3′H-spiro[cyclopropane-1,2′-pyrrolizin]-7a′(5′H)-yl)methoxy)-10-fluoro-5,6-dihydro-4H-[1,4]oxazepino[5,6,7-de]quinazolin-9-yl)-7-fluorobenzo[b]thiophene-3-carbonitrile], the IC50 at KRAS G12D, at KRAS WT, at KRAS G12V and on KRAS G12S was not above 2 µM each time.

Take `N#Cc1c(N)sc2c(F)ccc(-c3c(Cl)c4c5c(nc(OC[C@@]67CCCN6C[C@H](F)C7)nc5c3F)N(C(/C=C\F)c3cccnc3N)CCO4)c12` (single isomer, unassigned) [Compound 755]: the IC50 at KRAS G12D, at KRAS WT, on KRAS G12V and on KRAS G12S was not above 2 µM in each case.

As for `C[C@H](c1cccnc1N)N1CCOc2c(C(F)(F)F)c(-c3ccc(F)c4sc(N)c(C#N)c34)c(F)c3nc(OC[C@@]45CCCN4CC(C#N)C5)nc1c23` (stereo partly drawn) [Compound 852, (7aS)-7a-(((9-(2-amino-3-cyano-7-fluorobenzo[b]thiophen-4-yl)-4-((R)-1-(2-aminopyridin-3-yl)ethyl)-10-fluoro-8-(trifluoromethyl)-5,6-dihydro-4H-[1,4]oxazepino[5,6,7-de]quinazolin-2-yl)oxy)methyl)hexahydro-1H-pyrrolizine-2-carbonitrile], the IC50 on KRAS G12D is more than 2 µM; on KRAS WT, not above 2 µM; on KRAS G12V it was more than 2 µM; on KRAS G12S, more than 2 µM.

For the compound `C#Cc1c(F)ccc2cc(O)cc(-c3nc4c5c(nc(OC[C@@]67CCCN6C[C@H](F)C7)nc5c3F)N(C(C)c3cccnc3N)CCO4)c12` (mixture of isomers) [Compound 742, 4-(10-(1-(2-aminopyridin-3-yl)ethyl)-4-fluoro-2-(((2R,7aS)-2-fluorotetrahydro-1H-pyrrolizin-7a (5H)-yl)methoxy)-9,10-dihydro-8H-7-oxa-1,3,6,10-tetraazacyclohepta[de]naphthalen-5-yl)-5-ethynyl-6-fluoronaphthalen-2-ol], the IC50 on KRAS G12D, at KRAS WT, at KRAS G12V and on KRAS G12S was not above 2 µM each time.
